Measurements from ChEMBL document CHEMBL1909046, “DrugMatrix in vitro pharmacology data”.

Experiments:
[1] = molecular target: T1, B2 bradykinin receptor (Homo sapiens, UniProt P30411); format: cell membranes, Membrane; conditions: chem-1; note: in other assays of this panel Not Active means under 50% inhibition at 10 µM
T1 sequence (P30411 whole entry): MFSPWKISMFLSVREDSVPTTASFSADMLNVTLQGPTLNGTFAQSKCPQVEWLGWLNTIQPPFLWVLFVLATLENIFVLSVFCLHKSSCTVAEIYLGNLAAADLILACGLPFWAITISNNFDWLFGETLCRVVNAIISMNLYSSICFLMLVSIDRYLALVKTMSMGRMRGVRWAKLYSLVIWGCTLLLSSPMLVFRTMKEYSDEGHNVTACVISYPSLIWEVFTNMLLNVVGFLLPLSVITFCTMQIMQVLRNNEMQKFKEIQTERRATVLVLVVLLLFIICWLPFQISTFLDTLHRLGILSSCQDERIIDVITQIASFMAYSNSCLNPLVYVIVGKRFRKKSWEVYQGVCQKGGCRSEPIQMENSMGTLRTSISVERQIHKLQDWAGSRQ

[2] = molecular target: T2, Interstitial collagenase (Homo sapiens, UniProt P03956); test: biochemical; format: tissue-based, Rheumatoid synovial fibroblasts;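 note: MMP-1 enzyme inhibition assay using a peptide substrate; in other assays of this panel Not Active means under 50% inhibition at 10 µM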
T2 sequence (P03956 whole entry): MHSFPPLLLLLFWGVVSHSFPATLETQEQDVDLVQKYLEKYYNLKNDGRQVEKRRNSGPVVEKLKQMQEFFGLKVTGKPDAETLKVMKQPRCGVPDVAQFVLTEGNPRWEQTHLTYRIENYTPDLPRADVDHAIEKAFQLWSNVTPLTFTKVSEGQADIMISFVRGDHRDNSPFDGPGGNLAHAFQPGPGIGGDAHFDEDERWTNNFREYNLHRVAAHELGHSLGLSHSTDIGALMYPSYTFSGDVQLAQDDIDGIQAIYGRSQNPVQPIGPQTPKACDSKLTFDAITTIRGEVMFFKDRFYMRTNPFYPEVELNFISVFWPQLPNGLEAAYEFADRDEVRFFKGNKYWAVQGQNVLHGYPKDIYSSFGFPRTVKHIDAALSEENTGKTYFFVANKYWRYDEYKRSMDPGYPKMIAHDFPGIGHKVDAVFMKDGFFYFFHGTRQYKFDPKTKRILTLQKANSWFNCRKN

[3] = molecular target: T3, Type-2 angiotensin II receptor (Homo sapiens, UniProt P50052); format: cell-based; conditions: cho-k1; note: in other assays of this panel Not Active means under 50% inhibition at 10 µM
T3 sequence (P50052 whole entry): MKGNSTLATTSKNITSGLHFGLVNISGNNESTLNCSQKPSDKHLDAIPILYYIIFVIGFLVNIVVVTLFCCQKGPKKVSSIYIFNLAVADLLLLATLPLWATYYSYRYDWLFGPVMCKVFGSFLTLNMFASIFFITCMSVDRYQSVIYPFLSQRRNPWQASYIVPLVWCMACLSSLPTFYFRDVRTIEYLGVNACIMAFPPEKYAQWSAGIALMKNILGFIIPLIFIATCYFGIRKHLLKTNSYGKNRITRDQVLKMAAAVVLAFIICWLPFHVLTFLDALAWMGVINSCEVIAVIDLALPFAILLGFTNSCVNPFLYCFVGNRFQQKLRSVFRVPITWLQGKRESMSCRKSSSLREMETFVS

[4] = molecular target: Beta-3 adrenergic receptor (Homo sapiens, UniProt P13945); test: DRUGMATRIX: Adrenergic beta3 radioligand binding (ligand: [125I] Cyanopindolol); format: cell membranes, Membrane; conditions: hek293; Not Active = under 50% inhibition at 10 µM
[5] = DRUGMATRIX: Potassium Channel [KATP] radioligand binding (ligand: [3H] Glyburide); format: cell membranes, Membrane; conditions: hit-t15, Not Active = under 50% inhibition at 10 µM
[6] = molecular target: Vascular endothelial growth factor receptor 1 (Homo sapiens, UniProt P17948); format: cell-based; conditions: huvec; note: in other assays of this panel Not Active means under 50% inhibition at 10 µM
[7] = DRUGMATRIX: Platelet-Derived Growth Factor (PDGF) radioligand binding (ligand: [125I] PDGF); format: cell-based; conditions: nih3t3; Not Active = under 50% inhibition at 10 µM
[8] = molecular target: T4, Cytochrome P450 2A6 (Homo sapiens, UniProt P11509); conditions: bti-tn-5b1-4; note: in other assays of this panel Not Active means under 50% inhibition at 10 µM
T4 sequence (P11509 whole entry): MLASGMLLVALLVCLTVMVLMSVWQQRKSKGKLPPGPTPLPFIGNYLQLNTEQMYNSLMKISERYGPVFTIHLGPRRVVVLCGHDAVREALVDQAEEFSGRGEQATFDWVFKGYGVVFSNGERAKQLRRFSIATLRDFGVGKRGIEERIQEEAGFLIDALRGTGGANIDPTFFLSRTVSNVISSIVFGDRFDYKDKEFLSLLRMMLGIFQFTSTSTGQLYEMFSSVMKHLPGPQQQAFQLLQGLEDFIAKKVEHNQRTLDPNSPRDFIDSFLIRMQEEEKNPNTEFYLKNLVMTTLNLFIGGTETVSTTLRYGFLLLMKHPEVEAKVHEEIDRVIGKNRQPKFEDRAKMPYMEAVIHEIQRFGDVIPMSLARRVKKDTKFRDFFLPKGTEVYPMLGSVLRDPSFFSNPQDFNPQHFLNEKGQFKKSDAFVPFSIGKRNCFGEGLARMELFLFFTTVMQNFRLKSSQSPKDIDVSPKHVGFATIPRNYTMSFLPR

Vascular endothelial growth factor receptor 1, sequence (P17948 whole entry): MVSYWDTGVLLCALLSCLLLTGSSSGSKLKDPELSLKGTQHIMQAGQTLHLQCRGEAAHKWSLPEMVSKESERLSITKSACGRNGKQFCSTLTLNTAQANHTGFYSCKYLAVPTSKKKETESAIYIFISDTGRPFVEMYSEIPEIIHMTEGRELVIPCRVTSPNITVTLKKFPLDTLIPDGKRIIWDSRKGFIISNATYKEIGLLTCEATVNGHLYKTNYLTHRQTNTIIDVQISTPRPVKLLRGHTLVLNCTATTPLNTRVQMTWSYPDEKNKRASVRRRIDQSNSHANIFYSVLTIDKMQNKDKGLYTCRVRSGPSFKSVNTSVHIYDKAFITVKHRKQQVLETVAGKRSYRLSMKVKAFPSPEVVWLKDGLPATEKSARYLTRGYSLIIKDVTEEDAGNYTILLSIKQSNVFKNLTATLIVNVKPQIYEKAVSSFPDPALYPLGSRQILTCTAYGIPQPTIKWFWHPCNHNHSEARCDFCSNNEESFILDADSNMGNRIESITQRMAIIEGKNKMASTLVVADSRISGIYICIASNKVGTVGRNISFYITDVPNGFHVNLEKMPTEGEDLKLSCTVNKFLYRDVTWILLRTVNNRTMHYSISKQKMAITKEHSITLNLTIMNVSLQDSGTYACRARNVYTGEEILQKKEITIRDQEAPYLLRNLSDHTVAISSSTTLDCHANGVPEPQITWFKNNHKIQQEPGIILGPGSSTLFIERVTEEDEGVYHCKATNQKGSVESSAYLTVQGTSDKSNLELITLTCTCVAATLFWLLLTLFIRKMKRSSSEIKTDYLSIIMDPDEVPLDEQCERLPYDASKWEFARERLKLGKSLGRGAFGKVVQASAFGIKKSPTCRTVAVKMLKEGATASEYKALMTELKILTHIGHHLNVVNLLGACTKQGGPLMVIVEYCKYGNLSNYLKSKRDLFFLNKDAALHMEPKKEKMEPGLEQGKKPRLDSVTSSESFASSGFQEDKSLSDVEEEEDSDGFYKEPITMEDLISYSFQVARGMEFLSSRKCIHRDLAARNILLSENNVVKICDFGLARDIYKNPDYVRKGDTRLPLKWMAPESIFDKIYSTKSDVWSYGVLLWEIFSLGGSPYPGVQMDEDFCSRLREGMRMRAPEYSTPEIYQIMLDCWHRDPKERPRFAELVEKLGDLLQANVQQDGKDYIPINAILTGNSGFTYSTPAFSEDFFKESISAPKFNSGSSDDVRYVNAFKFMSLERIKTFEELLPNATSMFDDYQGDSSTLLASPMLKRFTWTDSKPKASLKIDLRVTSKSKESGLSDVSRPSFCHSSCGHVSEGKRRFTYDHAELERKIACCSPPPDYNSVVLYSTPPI
Beta-3 adrenergic receptor, sequence (P13945 whole entry): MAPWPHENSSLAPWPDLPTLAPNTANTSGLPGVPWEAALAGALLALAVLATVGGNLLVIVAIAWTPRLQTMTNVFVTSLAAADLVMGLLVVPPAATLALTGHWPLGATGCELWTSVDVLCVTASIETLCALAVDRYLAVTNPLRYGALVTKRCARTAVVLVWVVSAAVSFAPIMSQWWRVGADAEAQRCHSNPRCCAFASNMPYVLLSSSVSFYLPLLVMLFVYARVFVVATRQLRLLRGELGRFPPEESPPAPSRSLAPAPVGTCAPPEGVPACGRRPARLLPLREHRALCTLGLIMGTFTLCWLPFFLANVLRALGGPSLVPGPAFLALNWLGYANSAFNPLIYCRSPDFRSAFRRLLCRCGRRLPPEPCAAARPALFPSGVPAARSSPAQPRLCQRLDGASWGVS

SMILES	IC50 [1]	IC50 [2]	IC50 [3]	IC50 [4]	IC50 [5]	Ki [5]	IC50 [6]	IC50 [7]	Ki [7]	IC50 [8]	Ki [8]	IC50 ([5]; read-out: IC50)	Ki ([5]; read-out: Ki)	IC50 ([2]; read-out: IC50)
Oc1ccc(OCc2ccccc2)cc1 [MONOBENZONE]	Not Active	Not Active	Not Active	Not Active	Not Active	Not Active	Not Active	Not Active	Not Active	Not Active	Not Active			
O=C1CC2(CCCC2)CC(=O)N1CCCCN1CCN(c2ncccn2)CC1 [BUSPIRONE]	Not Active	Not Active	Not Active	Not Active	Not Active	Not Active	Not Active	Not Active	Not Active	Not Active	Not Active			
Nc1ccn([C@@H]2CS[C@H](CO)O2)c(=O)n1 [LAMIVUDINE]	Not Active	Not Active	Not Active	Not Active	Not Active	Not Active	Not Active	Not Active	Not Active	Not Active	Not Active			
COc1ccc2c(c1)c(CC(=O)O)c(C)n2C(=O)c1ccc(Cl)cc1 [INDOMETHACIN]	Not Active	Not Active	Not Active	Not Active	Not Active	Not Active	Not Active	Not Active	Not Active	Not Active	Not Active			
CC(C)[C@H]1CC[C@H](C(=O)N[C@H](Cc2ccccc2)C(=O)O)CC1 [NATEGLINIDE]	Not Active	Not Active	Not Active	Not Active			Not Active	Not Active	Not Active	Not Active	Not Active	1670 nM	189 nM	
CCCC(=O)Nc1ccc(OCC(O)CNC(C)C)c(C(C)=O)c1 (stereo not drawn) [ACEBUTOLOL]	Not Active	Not Active	Not Active	Not Active	Not Active	Not Active	Not Active	Not Active	Not Active	Not Active	Not Active			
C[C@]12CC[C@@H]3c4ccc(OC(=O)c5ccccc5)cc4CC[C@H]3[C@@H]1CC[C@@H]2O [ESTRADIOL BENZOATE]	Not Active	Not Active	Not Active	Not Active	Not Active	Not Active	Not Active	Not Active	Not Active	Not Active	Not Active			
CC1(C)O[C@@H]2C[C@H]3[C@@H]4C[C@H](F)C5=CC(=O)C=C[C@]5(C)[C@H]4[C@@H](O)C[C@]3(C)[C@]2(C(=O)CO)O1 [FLUNISOLIDE]	Not Active	Not Active	Not Active	Not Active	Not Active	Not Active	Not Active	Not Active	Not Active	Not Active	Not Active			
CC1=C(C(=O)O)N2C(=O)[C@@H](NC(=O)[C@H](N)c3ccccc3)[C@H]2SC1 [CEPHALEXIN ANHYDROUS]	Not Active	Not Active	Not Active	Not Active	Not Active	Not Active	Not Active	Not Active	Not Active	Not Active	Not Active			
COC(=O)C1=C(C)NC(C)=C(C(=O)OCC(C)C)C1c1ccccc1[N+](=O)[O-] (stereo not drawn) [NISOLDIPINE]	Not Active	Not Active	Not Active	Not Active	Not Active	Not Active	Not Active	Not Active	Not Active	Not Active	Not Active			
CC(=O)Nc1ccc(O)cc1 [ACETAMINOPHEN]	Not Active	Not Active	Not Active	Not Active	Not Active	Not Active	Not Active	Not Active	Not Active	Not Active	Not Active			
CCc1c2c(nc3ccc(OC(=O)N4CCC(N5CCCCC5)CC4)cc13)-c1cc3c(c(=O)n1C2)COC(=O)[C@]3(O)CC [IRINOTECAN]	Not Active		Not Active	Not Active	Not Active	Not Active	Not Active	Not Active	Not Active	Not Active	Not Active			6060 nM
C[C@]12CC[C@@H]3c4ccc(O)cc4CC[C@H]3[C@@H]1CC[C@@H]2O [ESTRADIOL]	Not Active	Not Active	Not Active	Not Active	Not Active	Not Active	Not Active	Not Active	Not Active	Not Active	Not Active			
C#C[C@]1(OC(C)=O)CC[C@H]2[C@@H]3CCC4=CC(=O)CC[C@@H]4[C@H]3CC[C@@]21C [NORETHINDRONE ACETATE]	Not Active	Not Active	Not Active	Not Active	Not Active	Not Active	Not Active	Not Active	Not Active	Not Active	Not Active			
N=C(Nc1ccccc1)Nc1ccccc1	Not Active	Not Active	Not Active	Not Active	Not Active	Not Active	Not Active	Not Active	Not Active	Not Active	Not Active			
ClC(Cl)Cl [CHLOROFORM]	Not Active	Not Active	Not Active	Not Active	Not Active	Not Active	Not Active	Not Active	Not Active	Not Active	Not Active			
N=C(N)NC(=O)c1nc(Cl)c(N)nc1N [AMILORIDE]	Not Active	Not Active	Not Active	Not Active	Not Active	Not Active	Not Active	Not Active	Not Active	Not Active	Not Active			
CCN1CC(CCN2CCOCC2)C(c2ccccc2)(c2ccccc2)C1=O (stereo not drawn) [DOXAPRAM]	Not Active	Not Active	Not Active	Not Active	Not Active	Not Active	Not Active	Not Active	Not Active	Not Active	Not Active			
